Measured values published in article PMC12785583, “Coconut Milk-Derived Bioactive Peptides as Multifunctional Agents Against Hyperglycemia, Oxidative Stress, and Glycation: An Integrated Experimental and Computational Study” (International Journal of Molecular Sciences, 2025).
Read-outs that look alike come from different tables or passages of the source.

How the values were obtained:
yeast α-glucosidase = experiment: α-glucosidase inhibition assay; type: biochemical, Saccharomyces cerevisiae; settings: for IC50: read-out: α-Glucosidase Inhibition IC50 (value in bracket) (converted)
Protocol: The α-glucosidase inhibition assay was performed following the method described by Huligere et al.. […] In this assay, one unit of activity was defined as the amount of enzyme required to release one µmol of p-nitrophenol from pNPG per minute under the specified experimental conditions. […] The reaction was maintained at 37 °C for an additional 20 min. Enzyme activity was determined by measuring the absorbance of liberated p-nitrophenol at 405 nm using a microplate reader (Spectramax i3, Molecular Devices, LLC, San Jose, CA, USA). […] IC50 values were determined by relating the percentage inhibition of each sample to its concentration.

aldose reductase [1] = molecular target: T1, aldose reductase (Homo sapiens, UniProt P15121); experiment: aldose reductase inhibition assay; type: biochemical
Protocol: The aldose reductase inhibition assay was performed according to the method described by Alharbi et al.. Briefly, a 1 mL reaction mixture comprised 0.87 mL of 100 mM Sodium phosphate buffer (pH 6.2), 0.05 mL of 3 mM NADPH, 0.01 mL of human aldose reductase (recombinant, 0.2 U/mL), with the enzyme’s activity being 0.2 IU/mL, and 0.02 mL of test compounds (designated as peptide 1 and peptide 2) at different concentrations. 0.05 mL of the substrate (DL-glyceraldehyde, five mM) was incubated in the reaction mixture for 3 min at 25 °C. Enzyme activity was determined by measuring the reduction in NADPH absorption at 340 nm over 10 min. […] Aldose reductase inhibitory activity was expressed as the percentage of inhibition.

[2] = methylglyoxal scavenging (Maillard reaction model, DNPH assay)
Protocol: This preliminary assay was conducted to evaluate the methylglyoxal scavenging activity of peptides derived from coconut milk. The Maillard reaction was employed to assess the scavenging potential of peptides against methylglyoxal, using parameters as outlined in previous studies by Risum et al., Zhu et al., and Brings et al., with modifications. The reaction mixture (1 mL) consisted of both peptides at different concentrations, methylglyoxal (0.01 mM), phosphate buffer, and water. It was incubated at two temperatures: room temperature (followed by immediate termination) and 37 °C (for 2 h). Following the incubation time, the reaction was terminated by adding 10 μL of glacial acetic acid. Creatine was used as a positive control. The experiments were performed in triplicate.
The scavenging potential of the peptides against methylglyoxal was determined using the DNPH assay. In brief, 25 μL of the sample was mixed with 975 μL of water and 1000 μL of DNPH reagent. The reaction mixture was shaken well and incubated at 37 °C for 10 min. Following incubation, the reaction was terminated by adding 1000 μL of 1.5 N NaOH, and the absorbance of the yellowish-orange complex was measured at 525 nm using […]: the MGO blank and the Creatine blank. Scavenging efficiency was calculated using Equations (4) and (5).(4) ACORR=Asample−Ablank (5) MGOscavenging=1−Acorr/AMGO,corr·100 where Asample is the absorbance of the reaction mixture containing methylglyoxal and the test compound (peptide or creatine), Ablank is the absorbance of the reagent blank (without methylglyoxal and without test compound), and AMGO,corr is the blank-corrected absorbance of the methylglyoxal blank (AMGO-Ablank). The creatine control was processed in the same way as the peptide samples.

[3] = ABTS radical scavenging assay
Protocol: Concerning the ABTS assay, the ABTS^•+ radical cation was generated. Subsequently, 0.05 mL of the test samples (peptides 1 and 2) at various concentrations was mixed with 4.00 mL of ABTS^•+ solution and kept in the dark at room temperature for two h. The absorbance was determined at 734 nm using a UV–Vis Spectrophotometer (UV-1280 Shimadzu, Germany). Ascorbic acid was used as the positive control, and samples without the ABTS radical solution served as blanks. The results were expressed as the effective concentration (EC50) values.

α-glucosidase = experiment: enzyme inhibition kinetics (Lineweaver-Burk), α-glucosidase; type: biochemical, Saccharomyces cerevisiae; set-up: Vmax: unit not given here
Excerpt: (§1) Enzyme inhibition by coconut milk peptide 2 was further characterised for α-glucosidase, α-amylase and aldose reductase by steady-state kinetic analysis. […] In this context, v denotes the initial rate of product formation, whereas [S] denotes the concentration of the chromogenic or natural substrate used in each assay. Michaelis explained how v depends on [S] for each condition, as described by the Michaelis–Menten equation (Equation (2)):(2) v=VmaxS/Km+S Lineweaver–Burk double-reciprocal plots (Equation (3)) were then constructed by plotting 1/v versus 1/[S]:(3) 1/v=Km/Vmax·1/S+1/Vmax Michaelis–Menten parameters (Km and Vmax) and apparent inhibition constants (Ki) were obtained from these Lineweaver–Burk plots.

α-amylase = molecular target: T2, α-amylase (Sus scrofa, UniProt P00690); experiment: enzyme inhibition kinetics (Lineweaver-Burk), α-amylase; type: biochemical, porcine; set-up: Vmax: unit not given here
T2 construct: purchased SRL (Sisco Research Laboratories)
T2 sequence (P00690 16-511): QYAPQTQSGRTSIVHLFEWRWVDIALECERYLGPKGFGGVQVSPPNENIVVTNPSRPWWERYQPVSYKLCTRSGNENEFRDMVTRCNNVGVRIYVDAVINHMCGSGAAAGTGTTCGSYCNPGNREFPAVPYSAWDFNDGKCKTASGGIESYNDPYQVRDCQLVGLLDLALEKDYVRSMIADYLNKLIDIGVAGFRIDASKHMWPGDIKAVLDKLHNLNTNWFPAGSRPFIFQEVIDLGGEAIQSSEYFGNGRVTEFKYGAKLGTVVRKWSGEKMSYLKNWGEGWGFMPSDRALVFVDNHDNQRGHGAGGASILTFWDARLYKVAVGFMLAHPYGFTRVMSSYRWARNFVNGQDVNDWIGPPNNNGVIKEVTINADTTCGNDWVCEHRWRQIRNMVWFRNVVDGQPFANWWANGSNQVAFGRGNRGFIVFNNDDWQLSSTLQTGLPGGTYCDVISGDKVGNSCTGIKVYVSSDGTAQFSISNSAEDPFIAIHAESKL
Excerpt: as §1

aldose reductase [4] = molecular target: T1, aldose reductase; experiment: enzyme inhibition kinetics (Lineweaver-Burk), aldose reductase; type: biochemical; set-up: Vmax: unit not given here
Excerpt: as §1

[5] = mean ± SE, read-out: Ki (apparent inhibition constant) (converted)

H-ADVFNPR-OH [Peptide 2, ADVFNPR]
IC50 (yeast α-glucosidase; listed as peptide 2): 40.1 µM
α-Glucosidase Inhibition IC50 (yeast α-glucosidase; mean ± SD): 32.82 ± 0.17 µg/mL
IC50 (yeast α-glucosidase): 40.1 µM
IC50 (aldose reductase [1]; mean ± SD, read-out: Aldose Reductase Inhibition IC50 (converted)): 24.8 µM
IC50 (aldose reductase [1]; read-out: Aldose Reductase Inhibition IC50 (value in bracket) (converted)): 24.8 µM
Methylglyoxal Scavenging EC50 at 37 °C, 2 h ([2]; 37 °C, 2 h): 182.17 ± 0.23 µg/mL
EC50 ([2]; read-out: Methylglyoxal Scavenging EC50 at 37 °C, 2 h (value in bracket), 37 °C, 2 h): 223 µM
Methylglyoxal Scavenging EC50 at RT ([2]; room temperature, immediate termination): 208.10 ± 0.65 µg/mL
EC50 ([2]; room temperature, immediate termination, read-out: Methylglyoxal Scavenging EC50 at RT (value in bracket) (converted)): 254 µM
ABTS Radical Scavenging Assay EC50 [3]: 17.89 ± 0.20 µg/mL
EC50 ([3]; read-out: ABTS Radical Scavenging Assay EC50 (value in bracket) (converted)): 21.9 µM
Vmax (α-glucosidase; IC20—13.13 µg): 14.87
Vmax (α-glucosidase; IC40—26.26 µg): 14.68
Vmax (α-glucosidase; IC60—39.39 µg): 14.50
Mode of inhibition (α-glucosidase; from Lineweaver–Burk plot): Competitive
Ki (apparent inhibition constant) (α-glucosidase; mean ± SE): 0.95 ± 0.09 µg
Vmax (essentially constant) (α-glucosidase; over IC20–IC60): ~15 µM/min
Vmax (α-amylase; IC20—33.55 µg): 27.75
Vmax (α-amylase; IC40—67.10 µg): 26.26
Vmax (α-amylase; IC60—100.60 µg): 27.50
Mode of inhibition (α-amylase; from Lineweaver–Burk plot): Competitive
Ki (α-amylase; [5]): 1.64 µM
Vmax (essentially constant) (α-amylase; over IC20–IC60): ~27 µM/min
Vmax (aldose reductase [4]; IC20—8.12 µg): 46.64
Vmax (aldose reductase [4]; IC40—16.23 µg): 46.02
Vmax (aldose reductase [4]; IC60—24.35 µg): 45.55
Mode of inhibition (aldose reductase [4]; from Lineweaver–Burk plot): Competitive
Ki (aldose reductase [4]; [5]): 0.954 µM
Vmax (essentially constant) (aldose reductase [4]; over IC20–IC60): ~46 µM/min
